Assay results published in patent US10100088B2, “Glycopeptide derivatives for the preservation and protection of biological materials and microorganisms” (TFCHEM, priority 2014, dated 2018).
Where two headings read alike, the source gives them in different places.

Columns and labels:
Assay type in all cases: cell-based
[1] = test system: human nasal epithelial cells (RPMI2650, ATCC CCL-30); test: Starvation (serum deprivation) stress, neutral red uptake viability; details: for viability at 10000 µg/mL: Homo sapiens, 10 mg/mL, read-out: Percentage of viability
Method: (§1) Induced stresses were performed as follow: Starvation
(§2) The neutral red uptake assay was used for the determination of cell viability. This assay is based on the ability of viable cells to incorporate and bind the supravital dye neutral red in its lysosomes. So, only the viable cells are dyed. At different times after the stress assay (T0), the plates were incubated with neutral red solution for 3.5 hours. The cells are subsequently washed, the dye is extracted in each well and the absorbance is read using a spectrophotometer.
(§3) For sampling, 1 mL of DMEM (without phenol red indicator) with neutral red (OD=0.110) was added to the cells for 3.5 hours (37° C., 10% CO2). After incubation, the medium was removed, two washes of PBS were realized and 1 mL of extraction solution (absolute ethanol 49%, ultrapure water 49%, glacial acetic acid 2%) was added. Plates were placed 15 minutes on rotary shaker in the dark before reading OD at 540 nm.
(§4) The OD540 nm average value of positive control was considered as 100% of viability.
(§5) The percentage of viability for each assay was calculated as follow: % viability assay=(OD540 nm of tested solution−blank)*100/(OD540 nm of positive control−blank).

[2] = test system: human neonatal skin fibroblasts (CCD-27SK, ATCC CRL-1475); test: as above; details: for Percentage of viability / viability at 5000 µg/mL: 5 mg/mL (Table 2); for viability at 5000 µg/mL: Homo sapiens, CCD-27Sk, read-out: Percentage of viability
Method: as §1, §2, §3, §4, §5

[3] = test system: human neonatal skin fibroblasts; test: Oxidative stress (H2O2), neutral red uptake viability; details: for viability at 5000 µg/mL / viability at 10000 µg/mL / viability at 15000 µg/mL: Homo sapiens, Skin fibroblast, read-out: Percentage of viability following oxidative stress; for viability at 5000 µg/mL: 5 mg/mL; for viability at 10000 µg/mL: 10 mg/mL; for viability at 15000 µg/mL: 15 mg/mL
Method: as §1
Then oxidative stress was performed as follow: 0.2 ml of solution at 500 μM of H2O2 was added in wells except for negative control where 0.2 ml of culture medium were added.
as §2, §3, §5

[4] = test system: human neonatal skin fibroblasts; test: UV stress (11 J/cm^2), neutral red uptake viability; details: for viability at 5000 µg/mL / viability at 10000 µg/mL / viability at 15000 µg/mL: Homo sapiens, Skin fibroblast, light or radiation study, read-out: Percentage of viability following UV stress (11 J/cm^2); for viability at 5000 µg/mL: 5 mg/mL; for viability at 10000 µg/mL: 10 mg/mL; for viability at 15000 µg/mL: 15 mg/mL
Method: as §2, §3, §5

SMILES: C[C@H](NC(=O)[C@H](C)NC(=O)[C@@H](N)CCCCNCC(F)(F)C1(O)O[C@H](CO)[C@H](O)[C@H](O)[C@H]1O)C(=O)O (stereo partly shown) [Compound 19]
- viability at 10000 µg/mL ([1]; RPMI-2650, D4 after serum deprivation): 52 ± 4.64%
- viability at 10000 µg/mL ([1]; RPMI-2650, D6 after serum deprivation): 26%
- preservative/protective effect on human nasal epithelial cells (in words) ([1]; starvation medium, 10 mg/ml): preservative/protective effect
- Percentage of viability ([2]; D 1 after serum deprivation): 73%
- Percentage of viability ([2]; D 7 after serum deprivation): 50%
- viability at 5000 µg/mL ([2]; D 1 after serum deprivation): 73 to 87%
- viability at 5000 µg/mL ([2]; D 4 after serum deprivation): 57%
- viability at 5000 µg/mL ([2]; D 7 after serum deprivation): 45 to 50%
- preservative/protective effect on skin fibroblasts (in words) ([2]; starvation medium): significant preservative/protective effect
- preservative/protective effect against oxidative stress (in words) ([3]; 5 to 15 mg/ml): preservative/protective effect against oxidative stress which is dose dependant
- viability at 5000 µg/mL ([3]; 1 h after 100 μM H2O2): 89 ± 2.7%
- viability at 10000 µg/mL ([3]; 1 h after 100 μM H2O2): 99 ± 0.5%
- viability at 15000 µg/mL ([3]; 1 h after 100 μM H2O2): 110 ± 2%
- viability at 5000 µg/mL ([3]; 24 h after 100 μM H2O2): 109 ± 2.2%
- viability at 10000 µg/mL ([3]; 24 h after 100 μM H2O2): 120 ± 2.1%
- viability at 15000 µg/mL ([3]; 24 h after 100 μM H2O2): 127 ± 5.8%
- growth/regenerative effect on stressed cells (in words) ([3]; viability increased in time after H2O2): growth/regenerative effect
- preservative/protective effect against UV stress (in words) [4]: preservative/protective effect against UV stress
- viability at 5000 µg/mL ([4]; 1 h after irradiation): 53%
- viability at 10000 µg/mL ([4]; 1 h after irradiation): 70%
- viability at 15000 µg/mL ([4]; 1 h after irradiation): 67%
- viability at 5000 µg/mL ([4]; 3 h after irradiation): 71%
- viability at 10000 µg/mL ([4]; 3 h after irradiation): 80%
- viability at 15000 µg/mL ([4]; 3 h after irradiation): 80%
- viability at 5000 µg/mL ([4]; 24 h after irradiation): 89%
- viability at 10000 µg/mL ([4]; 24 h after irradiation): 116%
- viability at 15000 µg/mL ([4]; 24 h after irradiation): 112%
- growth or regenerative effect on stressed cells (in words) ([4]; viability increased in time after UV): growth or regenerative effect
